Reference: patent US11802114B2, “Compounds and methods for detection of superoxide” (Promega Corporation, priority 2021, dated 2023)

Tests used:
[1] = tested on: superoxide; experiment: Cell-free detection of and specificity for superoxide (luciferase luminescence); type: biochemical; settings: probe 25 μM in PBS, FIG. 3
Protocol: The superoxide probe, Compound 1 (6-(4-hydroxy-3,5-dimethoxyphenoxy)benzo[d]thiazole-2-carbonitrile), was diluted into PBS to 25 μM into wells of a 96-well white-walled assay plate. Subsequently, generators of reactive oxygen and nitrogen species were diluted in PBS and added to the assay plate. The plate mixed using an orbital plate shaker for 5 minutes followed by a 30-minute incubation at room temperature protected from light. For luciferin detection, the luciferin-utilizing luciferase enzyme, UltraGlo (Promega Corporation), was prepared by mixing Luciferin Detection Reagent (Promega), Reconstitution Buffer (Promega), and d-Cysteine (Promega), and one volume was added to the reaction. The plate was mixed using an orbital plate shaker, and luminescence was measured using a GloMax® luminometer. Data are shown in FIG. 3; the blank includes PBS only; HX=hypoxanthine; XO=xanthine oxidase; and SOD=superoxide dismutase. […] This signal decreased in the presence of superoxide dismutase, confirming that superoxide is the source of the signal.

[2] = tested on: Human hepatocarcinoma cells (Hep G2); experiment: Detection of superoxide in cells; type: cell-based; settings: probe 12.5 uM, 1 hour at 37° C., FIG. 4
Protocol: Human hepatocarcinoma cells (Hep G2) were plated into wells of 96-well white-walled assay tissue culture plates. Plated cells were incubated overnight in a humidified tissue culture incubator at 37° C. with 5% CO2. The following day the superoxide probe, Compound 1 (6-(4-hydroxy-3,5-dimethoxyphenoxy)benzo[d]thiazole-2-carbonitrile), was added to the cells in culture medium at a final concentration of 12.5 uM. Subsequently, dimethoxynaphthoquinone (DMNQ; 50 μM) or antimycin A (10 μM) diluted in culture medium was added to the reaction wells and the assay plate(s) were incubated for 1 hour in a humidified tissue culture incubator at 37° C. with 5% C02. For luciferin detection, the luciferin-utilizing luciferase enzyme, UltraGlo (Promega Corporation), was prepared by mixing Luciferin Detection Reagent (Promega), Reconstitution Buffer (Promega), and d-Cysteine (Promega), and one volume was added to the reaction. The plate was mixed using an orbital plate shaker, and luminescence was measured using a GloMax® luminometer.

[3] = tested on: RAW 247.6 macrophage cell line; experiment: Detection of PMA-induced superoxide production by macrophages; type: cell-based; settings: 50 μl of 50 μM Compound 18 (FIG. 6A) or 100 μM Compound 20 (FIG. 6B), 2 hours at 37° C.; for luminescence signal with PMA treatment: 20 μM PMA
Protocol: Production of superoxide by macrophages plays an important role in immune response and inflammation. Superoxide is produced by nicotinamide adenine dinucleotide phosphate (NADPH) oxidases (known as NOX enzymes) and is induced by PMA (4β-phorbol-12-myristate-13-acetate). Here is shown an example of measuring PMA-induced superoxide production in RAW 247.6 macrophage cell line. RAW 247.6 cells were plated overnight in DMEM medium with 10% FBS. To start the experiment, the medium was removed, cells were washed once with PBS, and 50 μl of PBS containing 5 mM glucose, 1 mM MgCl2, 0.5 mM CaCl2, and 0.05% BSA was added to the cells in the presence or absence of 20 μM PMA. To measure production of superoxide, 50 μl of 50 μM Compound 18 (FIG. 6A) or 100 μM Compound 20 (FIG. 6B) was added to the cells. Cells were treated for 2 hours at 37° C. with luciferin production measured by adding equal volume of Luciferin Detection Reagent with esterases, and luminescence read after 20 minutes incubation at room temperature.

[4] = tested on: xanthine oxidase; experiment: Detection of xanthine oxidase activity in vitro; type: biochemical; settings: 25 μl of 75 μM probe, FIG. 5
Text: Xanthine oxidase (XO) is an enzyme that catalyzes the oxidation of hypoxanthine or xanthine to uric acid and superoxide. XO is normally found in liver and jejunum and plays an important role in the catabolism of purines. During severe liver damage, xanthine oxidase is released into blood and can be used as a marker for liver damage. Here is shown an example of measuring xanthine oxidase activity using pro-luciferin compounds described herein. Purified xanthine oxidase was 3× fold serially diluted in 0.1M Tris (pH7.5). 25 μl of diluted enzyme was transferred into wells of a 96-well assay plate, and the reaction was started by adding 25 μl of 300 μM xanthine and 25 μl of 75 μM Compound 20. After 10, 20, 30, and 60 minutes incubations at 37° C., 75 μl of Luciferin Detection Reagent containing esterases was added to the samples, and luminescence was read after additional 20 minutes incubation at room temperature.

[5] = tested on: RAW 247.6 macrophage cells; experiment: Detection of superoxide production in kinetic mode (media sampling); type: cell-based; settings: 50 μM probe, 20 μM PMA, 10, 20, 30 and 60 minutes, FIG. 7
Protocol: RAW 247.6 macrophage cells were plated at 30,000 cells per well overnight in DMEM medium with 10% FBS. The following day, the medium was removed, and cells were washed with PBS. 100 μl PBS containing 5 mM glucose, 1 mM MgCl2, 0.5mM CaCl2, 0.05% BSA, and 50 μM Compound 20 were added to the cells in the presence or absence of 20 μM PMA. The cells were placed back at 37° C. in tissue culture incubator. At different time points (10, 20, 30 and 60 minutes), 10 μl was removed from the samples, mixed with 10 μl of Luciferin Detection Reagent with esterases, and luminescence read following a 20 minute incubation at room temperature.

Row | Compound | luminescence signal in the presence of NONOate ([1]; 30-minute incubation) | luminescence signal in the presence of Rose Bengal (generates singlet oxygen) ([1]; 30-minute incubation) | luminescence signal in the presence of hydrogen peroxide ([1]; 30-minute incubation) | luminescence signal in the presence of sodium nitrite ([1]; 30-minute incubation) | luminescence signal in the presence of superoxide dismutase ([1]; HX + XO + SOD) | luminescence signal in the presence of HX and XO ([1]; hypoxanthine + xanthine oxidase (superoxide generator), 30-minute incubation at room temperature) | luminescence signal when cells were treated with DMNQ ([2]; DMNQ 50 μM) | luminescence signal when cells were treated with antimycin A ([2]; antimycin A 10 μM) | luminescence signal with PMA treatment [3] | luminescence signal in the presence of cells compared to medium only control [3] | increase in luminescence signal versus xanthine oxidase concentration and time ([4]; 300 μM xanthine, 10, 20, 30, and 60 minutes at 37° C.) | increase in luminescence signal, dependence on substrate ([4]; 25 μl of 300 μM xanthine, serially diluted XO, 37° C.) | luminescence signal over time in cells treated with PMA [5]
1 | COc1cc(Oc2ccc3nc(C#N)sc3c2)cc(OC)c1O [Compound 1, 6-(4-hydroxy-3,5-dimethoxyphenoxy)benzo[d]thiazole-2-carbonitrile] | Little to no signal | Little to no signal | Little to no signal | Little to no signal | decreased | strong signal | increase in signal | increase in signal | – | – | – | – | –
2 | CN(CCN(C)C(=O)Oc1ccc2nc(C3=N[C@@H](C(=O)O)CS3)sc2c1)C(=O)Oc1ccc(O)c(O)c1 [Compound 18, (S)-2-(6-(((2-(((3,4-dihydroxyphenoxy)carbonyl)(methyl)amino)ethyl)(methyl)carbamoyl)oxy)benzo[d]thiazol-2-yl)-4,5-dihydrothiazole-4-carboxylic acid] | – | – | – | – | – | – | – | – | increased significantly | higher luminescence signal | – | – | –
3 | COC(=O)[C@H]1CSC(c2nc3ccc(OC(=O)N(C)CCN(C)C(=O)Oc4ccc(OC(C)=O)c(OC(C)=O)c4)cc3s2)=N1 [Compound 20, (S)-4-(((2-((((2-(4-(methoxycarbonyl)-4,5-dihydrothiazol-2-yl)benzo[d]thiazol-6-yl)oxy)carbonyl)(methyl)amino)ethyl)(methyl)carbamoyl)oxy)-1,2-phenylene diacetate] | – | – | – | – | – | – | – | – | increased significantly | higher luminescence signal | linear with respect to xanthine oxidase concentration and time | depended on the presence of the xanthine oxidase substrate, xanthine | time dependent increase in signal
